Marks after values point to notes of the source that are not given here.
Experiments:
STZ diabetic rats = assay: Eye examination and cataract classification; assay type: in vivo, Sprague-Dawley rats
Text: A well-established model of streptozotocin (STZ)-induced diabetes in rats was used. Streptozotocin is a glucosamine derivative of nitrosurea which selectively destroys the β cells of the pancreatic islets and causes the development of diabetes with hyperglycemia and glycosuria. The model shares a series of characteristics with human diabetic complications at both a functional level and a biochemical level, such as, for example, a reduced nervous conduction, loss of small-diameter sensory nerve fibers in the skin, reduction in Na+ and K+-ATPase activity and early alterations of the thermal and mechanical nociceptive thresholds. In this study, diabetes was induced in 24 rats with a single intraperitoneal injection of 60 mg/kg of STZ dissolved in a sodium citrate buffer (pH 4.5). 24 rats injected only with the vehicle were used as non-diabetic controls. Hyperglycemia was confirmed by measuring glycosuria 72 hours after the injection of STZ using Keto-Diabur strips (KD-5000; Roche Diagnostics Spa, Italy). Only the animals with glycosuria >5% were classified as diabetic and included in the study. […] The animals were then randomized to receive the concentrate of the invention at an HT equivalent dose of 50 mg/kg/day or 50 mg/kg/day of pure HT in drinking water, according to the following treatment groups: The opacity of the eyes and of the crystalline lenses was examined every week starting from the seventh/eighth week after the induction of diabetes, the period in which, in the STZ diabetic model, cataracts manifest themselves. Cataract severity was classified using a validated semi-quantitative scale. In particular, the following assessment scheme and the following scores were used: [table] The opacity index was calculated to quantitatively assess the degree of opacity of the crystalline lens by means of the following formula: [formula]

[1] = Body weight, daily food and water intake in STZ diabetic and control rats; assay type: in vivo, Sprague-Dawley rats; details: 5 weeks; for BODY WEIGHT: 50 mg/kg/day (HT equivalent) in drinking water; for BODY WEIGHT / FOOD INTAKE: mean ± S.E.; for WATER INTAKE / FOOD INTAKE: 50 mg/kg/day
Text: Use was made of 48 male Sprague-Dawley rats (Harlan, Italy) with a weight comprised from 180-200 g. A well-established model of streptozotocin (STZ)-induced diabetes in rats was used. Streptozotocin is a glucosamine derivative of nitrosurea which selectively destroys the β cells of the pancreatic islets and causes the development of diabetes with hyperglycemia and glycosuria. The model shares a series of characteristics with human diabetic complications at both a functional level and a biochemical level, such as, for example, a reduced nervous conduction, loss of small-diameter sensory nerve fibers in the skin, reduction in Na+ and K+-ATPase activity and early alterations of the thermal and mechanical nociceptive thresholds. In this study, diabetes was induced in 24 rats with a single intraperitoneal injection of 60 mg/kg of STZ dissolved in a sodium citrate buffer (pH 4.5). 24 rats injected only with the vehicle were used as non-diabetic controls. Hyperglycemia was confirmed by measuring glycosuria 72 hours after the injection of STZ using Keto-Diabur strips (KD-5000; Roche Diagnostics Spa, Italy). Only the animals with glycosuria >5% were classified as diabetic and included in the study. […] The animals were then randomized to receive the concentrate of the invention at an HT equivalent dose of 50 mg/kg/day or 50 mg/kg/day of pure HT in drinking water, according to the following treatment groups: The daily dose of compounds was administered starting from the 7th week after the injection of STZ or the vehicle. The treatment lasted 5 weeks and urine samples were taken. The animals were then sacrificed and the plasma, kidneys and sciatic nerves were removed. The sacrifice took place within 2 hours after the last administration of the concentrate, HT or the vehicle. During the trial, the rats were weighed weekly to monitor their weight gain/loss. Hyperglycemia was confirmed in every rat by measuring the glucose level in the blood taken from the vein of the tail with a suitable apparatus (Glucomen, Menarini, Italy), 15 days after the injection of STZ. A plasma glucose level above 300 mg/dL was defined as the hyperglycemia threshold for defining the animals as diabetics.

[2] = non-diabetic control rats (CTRL)

Compound: OCCc1ccc(O)c(O)c1 [HT, hydroxytyrosol]
- diabetic rats in the fourth cataract phase (STZ diabetic rats; end of the fifth week, untreated 67%): 30%
- eyes with cataracts at stage 0 (STZ diabetic rats; end of the treatments, untreated none): 3 eyes
- opacity index (STZ diabetic rats; end of treatment, untreated 5.3): 2.0
- BODY WEIGHT ([1]; STZ diabetic rats): 216.6 ± 13.0 g
- WATER INTAKE ([1]; STZ diabetic rats): 170.1* ml/24 h
- FOOD INTAKE ([1]; STZ diabetic rats): 33.3 ± 3.7 g/24 h
- BODY WEIGHT [1, 2]: 450.4 ± 16.4 g
- WATER INTAKE [1, 2]: 69.5 ml/24 h
- FOOD INTAKE [1, 2]: 20.6 ± 0.9 g/24 h

From patent publication US20210046139A1, “VEGETATION WATERS AND USES THEREOF” (FATTORIA LA VIALLA DI GIANNI, ANTONIO E BANDINO LO FRANCO - …, priority 2018, published 2021)
